# Reference: ChEMBL document CHEMBL2074515, “Inhibitory effect of anti-diabetic agents on rat organic anion transporter rOAT1” (Eur J Pharmacol, 2000)
# Molecular target: T1, Solute carrier family 22 member 6 (Rattus norvegicus, UniProt O35956)
# T1 sequence (O35956 whole entry): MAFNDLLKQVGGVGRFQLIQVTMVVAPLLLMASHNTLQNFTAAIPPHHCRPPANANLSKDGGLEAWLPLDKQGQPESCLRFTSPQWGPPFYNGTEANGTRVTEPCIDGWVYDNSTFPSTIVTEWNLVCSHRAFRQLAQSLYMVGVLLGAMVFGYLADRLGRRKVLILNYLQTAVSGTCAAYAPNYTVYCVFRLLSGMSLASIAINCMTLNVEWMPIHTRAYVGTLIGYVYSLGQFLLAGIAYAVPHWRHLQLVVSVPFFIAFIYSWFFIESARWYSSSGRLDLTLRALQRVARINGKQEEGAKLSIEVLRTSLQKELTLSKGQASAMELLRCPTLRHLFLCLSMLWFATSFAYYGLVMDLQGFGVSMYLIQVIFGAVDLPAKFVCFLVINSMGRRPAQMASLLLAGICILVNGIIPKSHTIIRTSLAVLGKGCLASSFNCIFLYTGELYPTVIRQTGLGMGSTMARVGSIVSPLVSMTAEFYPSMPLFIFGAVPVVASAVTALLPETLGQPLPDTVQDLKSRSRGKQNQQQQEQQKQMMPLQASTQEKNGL
# Assay: TP_TRANSPORTER: inhibition of PAH uptake in Xenopus laevis oocytes
# Type: functional, cell-based, Oocyte
row,Ki [µM],Compound
1,39.5,CCCNC(=O)NS(=O)(=O)c1ccc(Cl)cc1 [CHLORPROPAMIDE]
2,55.5,CCCCNC(=O)NS(=O)(=O)c1ccc(C)cc1 [TOLBUTAMIDE]
3,9.2,CC(C)[C@H]1CC[C@H](C(=O)N[C@H](Cc2ccccc2)C(=O)O)CC1 [NATEGLINIDE]
4,1.6,COc1ccc(Cl)cc1C(=O)NCCc1ccc(S(=O)(=O)NC(=O)NC2CCCCC2)cc1 [GLYBURIDE]
